In US4853209A, “Bone marrow suppressing agents” (The Dow Chemical Company, priority 1987, dated 1989):
Read-outs that look alike come from different tables or passages of the source.

What was measured:
[1] = Two hour rat biolocalization of radionuclide compositions (Tables I, II, III); type: in vivo; conditions: 2 h, average of five rats; for Bone/Blood Ratio / Bone/Muscle Ratio: from percent dose per gram; for % Dose in Blood / % Dose in Liver / % Dose in Skeleton / % Dose in Urine / % Dose in Muscle: tail vein
Procedure: A vial is used to prepare the sample for injection. The vial contains 210 mg EDTMP and 140 mg of NaOH such that addition of 6 ml of a 3×10^-4 M Ho-166 solution in 0.1M HCl gave a final pH in the range of 7-8, forming the Ho-166 EDTMP composition. After checking the pH, samples were drawn for injection into Sprague-Dawley rats. Rats were injected with 100 microliters of the solution via a tail vein. Two hours after the injection the rats were killed by cervical dislocation and dissected. The amount of radiation in each tissue was obtained by counting in a NaI well counter and comparing to standards.
The biolocalization of compositions prepared as described in Examples 7, 8, 9 and 10 was determined in rats.
The numbers given in Table I represent the average of the results of five rats per Example.
The biolocalization of the composition prepared as described in Example 12 was determined in rats.
The numbers given in Table II represent the average of the results of testing in three rats.
The biolocalization of compositions prepared as described in Examples 14 and 15 was determined in rats.
The numbers given in Table III represent the average of the results of five rats per Example.

[2] = rat
Procedure: Quantitative biodistributions in rats are obtained by injecting 50-100 microliters (μl) of the radionuclide composition into the tail vein of unanesthetized laboratory rats. After a given period of time, the rats are sacrificed by cervical dislocation and various organs and tissues removed. The tissue samples are then rinsed, blotted dry and weighed. The radioactivity in the tissue samples are measured using a NaI scintillation counter in order to determine the biolocalization of the radionuclide.
The numbers given for each Example, with respect to Tables I, II and III represent the percentage of the administered dose which localized in the indicated tissue. The ratio of radioactivity observed in bone relative to other organs was calculated based on the percent dose per gram in the bone and in the particular organ.
A series of rats was injected with the composition of Example 7 and sacrificed in groups of five at various intervals.

[3] = rabbit, three hours, averaged for 5 rabbits
Procedure: The composition of Example 7 was also evaluated in rabbits. The rabbits were injected with 100-250 microliters of the composition via a cannula placed in the marginal ear vein.
Three hours after injection, a blood sample was taken by cardiac puncture and the animal was then sacrificed by injection of a commercial euthanasia solution.

bone marrow [4] = conditions: normal beagles, various dose levels, weekly blood samples
Procedure: A series of normal beagles was treated with various dose levels of the composition of Example 7. Blood samples were obtained weekly with white blood cell and platelet counts taken to monitor for signs of bone marrow suppression.

bone marrow [5] = conditions: mouse about 20 g, 198 μCi, six days
Procedure: A mouse weighing about 20 g is injected with 198 μCi of a Ho-166 EDTMP composition. After six days, the animal is sacrificed and both femurs and the sternum removed. The same bones are also taken from a nontreated animal (control). The tissues are fixed using standard histochemical procedures and decalcified using formic acid. The tissues are embedded in paraffin, three micron sections cut, placed on glass slides, and stained with hematoxilyn and eosin.

O=P(O)(O)CN(CCN(CP(=O)(O)O)CP(=O)(O)O)CP(=O)(O)O.[153Sm] [Example 7]
Bone/Blood Ratio [1]: 1800
Bone/Muscle Ratio [1]: 1500
% Dose in Blood [1]: 0.032 % Dose
% Dose in Liver [1]: 0.25 % Dose
% Dose in Skeleton [1]: 58 % Dose
% Dose in Urine [1]: 49 % Dose
blood clearance [2]: rapid blood clearance
uptake in bone [2]: rapid uptake in bone
Bone/Blood ([2]; 1 Hr): 120
Bone/Muscle ([2]; 1 Hr): 300
Percent of the Administered Dose, Blood ([2]; 1 Hr): 0.5% of the Administered Dose
Percent of the Administered Dose, Kidneys ([2]; 1 Hr): 0.47% of the Administered Dose
Percent of the Administered Dose, Liver ([2]; 1 Hr): 0.32% of the Administered Dose
Percent of the Administered Dose, Skeleton ([2]; 1 Hr): 58% of the Administered Dose
Percent of the Administered Dose, Urine ([2]; 1 Hr): 47% of the Administered Dose
Bone/Blood ([2]; 2 Hrs): 1800
Bone/Muscle ([2]; 2 Hrs): 1500
Percent of the Administered Dose, Blood ([2]; 2 Hrs): 0.03% of the Administered Dose
Percent of the Administered Dose, Kidneys ([2]; 2 Hrs): 0.25% of the Administered Dose
Percent of the Administered Dose, Liver ([2]; 2 Hrs): 0.25% of the Administered Dose
Percent of the Administered Dose, Skeleton ([2]; 2 Hrs): 58% of the Administered Dose
Percent of the Administered Dose, Urine ([2]; 2 Hrs): 49% of the Administered Dose
Bone/Blood ([2]; 5 Hrs): 4200
Bone/Muscle ([2]; 5 Hrs): 3600
Percent of the Administered Dose, Blood ([2]; 5 Hrs): 0.008% of the Administered Dose
Percent of the Administered Dose, Kidneys ([2]; 5 Hrs): 0.36% of the Administered Dose
Percent of the Administered Dose, Liver ([2]; 5 Hrs): 0.37% of the Administered Dose
Percent of the Administered Dose, Skeleton ([2]; 5 Hrs): 59% of the Administered Dose
Percent of the Administered Dose, Urine ([2]; 5 Hrs): 46% of the Administered Dose
Bone/Blood ([2]; 15 Min): 7
Bone/Muscle ([2]; 15 Min): 30
Percent of the Administered Dose, Blood ([2]; 15 Min): 5.9% of the Administered Dose
Percent of the Administered Dose, Kidneys ([2]; 15 Min): 1.745% of the Administered Dose
Percent of the Administered Dose, Liver ([2]; 15 Min): 0.96% of the Administered Dose
Percent of the Administered Dose, Skeleton ([2]; 15 Min): 48% of the Administered Dose
Percent of the Administered Dose, Urine ([2]; 15 Min): 28% of the Administered Dose
Bone/Blood ([2]; 24 Hrs): 6700
Bone/Muscle ([2]; 24 Hrs): 2400
Percent of the Administered Dose, Blood ([2]; 24 Hrs): 0.007% of the Administered Dose
Percent of the Administered Dose, Kidneys ([2]; 24 Hrs): 0.25% of the Administered Dose
Percent of the Administered Dose, Liver ([2]; 24 Hrs): 0.35% of the Administered Dose
Percent of the Administered Dose, Skeleton ([2]; 24 Hrs): 52% of the Administered Dose
Percent of the Administered Dose, Urine ([2]; 24 Hrs): 55% of the Administered Dose
Bone/Blood ([2]; 30 Min): 20
Bone/Muscle ([2]; 30 Min): 70
Percent of the Administered Dose, Blood ([2]; 30 Min): 2.3% of the Administered Dose
Percent of the Administered Dose, Kidneys ([2]; 30 Min): 0.805% of the Administered Dose
Percent of the Administered Dose, Liver ([2]; 30 Min): 0.53% of the Administered Dose
Percent of the Administered Dose, Skeleton ([2]; 30 Min): 53% of the Administered Dose
Percent of the Administered Dose, Urine ([2]; 30 Min): 42% of the Administered Dose
Bone/Blood ([2]; 48 Hrs): 8200
Bone/Muscle ([2]; 48 Hrs): 2800
Percent of the Administered Dose, Blood ([2]; 48 Hrs): 0.006% of the Administered Dose
Percent of the Administered Dose, Kidneys ([2]; 48 Hrs): 0.29% of the Administered Dose
Percent of the Administered Dose, Liver ([2]; 48 Hrs): 0.46% of the Administered Dose
Percent of the Administered Dose, Skeleton ([2]; 48 Hrs): 60% of the Administered Dose
Percent of the Administered Dose, Urine ([2]; 48 Hrs): 50% of the Administered Dose
Bone/Blood ([2]; 72 Hrs): 7800
Bone/Muscle ([2]; 72 Hrs): 3400
Percent of the Administered Dose, Blood ([2]; 72 Hrs): 0.006% of the Administered Dose
Percent of the Administered Dose, Kidneys ([2]; 72 Hrs): 0.22% of the Administered Dose
Percent of the Administered Dose, Liver ([2]; 72 Hrs): 0.49% of the Administered Dose
Percent of the Administered Dose, Skeleton ([2]; 72 Hrs): 57% of the Administered Dose
Percent of the Administered Dose, Urine ([2]; 72 Hrs): 53% of the Administered Dose
clearance of the radioactivity from the skeletal system ([2]; throughout the course of the experiment): no significant clearance of the radioactivity from the skeletal system
% Dose in Blood ([3]; marginal ear vein): 0.12 % Dose
% Dose in Liver ([3]; marginal ear vein): 0.95 % Dose
% Dose in Skeleton ([3]; marginal ear vein): 66 % Dose
% Dose in Urine ([3]; marginal ear vein, 180 min): 34 % Dose
Bone/Blood Ratio [3]: 900
Bone/Muscle Ratio [3]: 1200
platelet count (bone marrow [4]): dose dependent reduction
white blood cell count (bone marrow [4]): dose dependent reduction

O=P(O)(O)CN(CCN(CP(=O)(O)O)CP(=O)(O)O)CCN(CP(=O)(O)O)CP(=O)(O)O.[153Sm] [Example 8]
Bone/Blood Ratio [1]: 224
Bone/Muscle Ratio [1]: 220
% Dose in Blood [1]: 0.16 % Dose
% Dose in Liver [1]: 0.27 % Dose
% Dose in Skeleton [1]: 30 % Dose
% Dose in Urine [1]: 74 % Dose

O=P(O)(O)CN(CCO)CCN(CP(=O)(O)O)CP(=O)(O)O.[153Sm] [Example 9]
Bone/Blood Ratio [1]: 1300
Bone/Muscle Ratio [1]: 1300
% Dose in Blood [1]: 0.035 % Dose
% Dose in Liver [1]: 0.45 % Dose
% Dose in Skeleton [1]: 57 % Dose
% Dose in Urine [1]: 50 % Dose

O=P(O)(O)CN(CCN(CCN(CP(=O)(O)O)CP(=O)(O)O)CCN(CP(=O)(O)O)CP(=O)(O)O)CP(=O)(O)O.[153Sm] [Example 10]
Bone/Blood Ratio [1]: 80
Bone/Muscle Ratio [1]: 410
% Dose in Blood [1]: 0.25 % Dose
% Dose in Liver [1]: 0.18 % Dose
% Dose in Skeleton [1]: 28 % Dose
% Dose in Urine [1]: 65 % Dose

O=P(O)(O)CN(CCN(CP(=O)(O)O)CP(=O)(O)O)CP(=O)(O)O.[166Ho] [Example 12]
suppression of the marrow (bone marrow [5]): suppression of the marrow
density of hemapoetic stem cells in marrow (bone marrow [5]; vs nontreated control): significantly lower density of hemapoetic stem cells
number of red blood cells in marrow (bone marrow [5]; vs nontreated control): significantly higher number of red blood cells

O=P(O)(O)CN(CCN(CP(=O)(O)O)CP(=O)(O)O)CP(=O)(O)O.[159Gd] [Example 14]
Bone/Blood Ratio [1]: 305
Bone/Muscle Ratio [1]: 577
% Dose in Blood [1]: 0.15 % Dose
% Dose in Liver [1]: 0.25 % Dose
% Dose in Muscle [1]: 0.56 % Dose
% Dose in Skeleton [1]: 57 % Dose

O=P(O)(O)CN(CCO)CCN(CP(=O)(O)O)CP(=O)(O)O.[159Gd] [Example 15]
Bone/Blood Ratio [1]: 335
Bone/Muscle Ratio [1]: 548
% Dose in Blood [1]: 0.14 % Dose
% Dose in Liver [1]: 0.57 % Dose
% Dose in Muscle [1]: 0.76 % Dose
% Dose in Skeleton [1]: 60 % Dose
